Molecular target: T1, human SH-PTP2 SH2 domain (Homo sapiens, UniProt Q06124)
T1 construct: made in house; host or cells: E. coli (pGEX-2T)
T1 sequence (Q06124 1-106): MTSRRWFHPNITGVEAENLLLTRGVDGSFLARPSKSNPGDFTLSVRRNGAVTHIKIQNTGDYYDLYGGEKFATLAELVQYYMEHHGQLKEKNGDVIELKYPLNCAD
Assay: ELISA-based SH2 domain / pY peptide binding assay, SH-PTP2 SH2 domain
Conditions: Ki calculated from IC50 with the expanded equation
Method: The inhibitory activity of compounds at the different human SH2 domains was determined in vitro using SH2 domains expressed as fusion proteins in E. coli. The SH2 domains used herein were the human forms of the src SH2 domain, Grb2 SH2 domain, lck SH2 domain, fyn SH2 domain, SH-PTP2 SH2 domain, p85 SH2 domain and hcp SH2 domain.
Fusion proteins having the structure GST-X-SH2 were prepared as described in the GST gene fusion kit system available from Pharmacia (New Jersey). GST is the tagging sequence glutathione s-transferase epitope (SEQ ID NO: 8) for fyn, Grb2 and SH-PTP2 and is the tagging sequence glutathione s-transferase epitope (SEQ ID NO: 9) for p85. SH2 refers to the SH2 domains of fyn, Grb2, p85 and SH-PTP2 which were expressed and purified using glutathione Sepharose 4B (Pharmacia) according to "Current Protocols in Molecular Biology", ed. FM Ausubel et al., pub. John Wiley and Sons, Inc., (1995), p 16.7.1. X is an appropriate linker, preferably of 6 to 21 base pairs, used to keep the SH2 construct in frame and complement cloning. As such, the sequence of X is not critical. One skilled in the art can readily construct the appropriate linker. The DNA sequence encoding each GST-X-SH2 fusion protein was designed such that the indicated restriction sites (BamH1 and EcoRI) flank the SH2 region. […]

Ki: > 1000 µM
SMILES: CCCCCCNC(=O)[C@H]1CC[C@H](CNC(=O)c2ccc(C(=O)c3ccc(C(=O)O)cc3)cc2)CC1 [Compound 6, 4-carboxy-benzophenone-4-carboxamido-trans-4-methyl-cyclohexyl-N-hexyl carboxamide]
